The values below come from article PMC2916072 (Archives of biochemistry and biophysics, 2010).

The target in the assay is Met receptor tyrosine kinase (Homo sapiens, UniProt P08581). The assay can be described thus: phospho-Met. It counts as cell-based.
Met receptor tyrosine kinase, sequence (P08581 25-307): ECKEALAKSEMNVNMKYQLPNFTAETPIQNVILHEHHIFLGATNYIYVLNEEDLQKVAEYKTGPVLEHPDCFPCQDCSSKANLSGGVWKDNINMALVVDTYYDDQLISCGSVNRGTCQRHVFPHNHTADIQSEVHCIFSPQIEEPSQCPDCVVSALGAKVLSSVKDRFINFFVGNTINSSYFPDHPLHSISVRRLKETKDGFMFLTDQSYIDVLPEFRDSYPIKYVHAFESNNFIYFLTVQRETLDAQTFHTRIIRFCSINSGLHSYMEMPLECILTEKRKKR
Met receptor tyrosine kinase, sequence (P08581 308-1390): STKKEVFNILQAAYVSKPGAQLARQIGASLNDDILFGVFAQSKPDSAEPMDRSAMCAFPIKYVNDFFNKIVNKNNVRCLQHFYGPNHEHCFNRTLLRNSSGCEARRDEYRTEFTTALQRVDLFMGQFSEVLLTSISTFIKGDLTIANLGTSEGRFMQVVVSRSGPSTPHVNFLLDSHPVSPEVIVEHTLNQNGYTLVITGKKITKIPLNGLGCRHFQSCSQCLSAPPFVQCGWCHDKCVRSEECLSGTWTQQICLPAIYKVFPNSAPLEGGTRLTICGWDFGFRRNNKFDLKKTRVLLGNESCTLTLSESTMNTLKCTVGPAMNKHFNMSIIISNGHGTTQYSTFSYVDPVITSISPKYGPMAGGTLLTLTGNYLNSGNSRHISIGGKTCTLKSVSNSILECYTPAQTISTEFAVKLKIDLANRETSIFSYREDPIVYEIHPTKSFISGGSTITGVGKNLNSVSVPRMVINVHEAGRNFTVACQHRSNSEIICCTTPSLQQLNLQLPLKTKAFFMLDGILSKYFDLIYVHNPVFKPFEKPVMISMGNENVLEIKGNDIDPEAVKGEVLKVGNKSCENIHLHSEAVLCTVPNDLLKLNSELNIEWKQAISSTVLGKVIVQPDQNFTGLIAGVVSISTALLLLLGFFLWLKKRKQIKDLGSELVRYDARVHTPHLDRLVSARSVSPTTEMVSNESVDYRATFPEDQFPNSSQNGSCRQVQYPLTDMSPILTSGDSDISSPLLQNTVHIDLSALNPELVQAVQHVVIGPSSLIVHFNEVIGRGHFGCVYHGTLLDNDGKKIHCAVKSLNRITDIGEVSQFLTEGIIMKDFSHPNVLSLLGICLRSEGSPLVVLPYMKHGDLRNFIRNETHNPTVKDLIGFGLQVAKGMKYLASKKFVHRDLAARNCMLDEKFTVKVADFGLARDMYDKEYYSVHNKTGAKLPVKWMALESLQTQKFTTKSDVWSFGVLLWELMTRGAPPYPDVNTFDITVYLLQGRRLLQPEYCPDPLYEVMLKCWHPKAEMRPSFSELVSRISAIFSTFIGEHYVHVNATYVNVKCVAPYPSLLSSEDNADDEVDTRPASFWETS

Take `Cc1[nH]c(/C=C2\C(=O)Nc3ccc(S(=O)(=O)N(C)c4cccc(Cl)c4)cc32)c(C)c1C(=O)N1CCN(C)CC1` [SU11274, (3Z)-N-(3-chlorophenyl)-3-({3,5-dimethyl-4-[(4-methylpiperazin-1-yl)carbonyl]-1H-pyrrol-2-yl}methylene)-N-methyl-2-oxoindoline-5-sulfonamide]: the IC50 (commonly the midpoint of a concentration-inhibition curve) amounted to 0.05 µM. In other words, the double-digit nanomolar range.
